Assay [1] addresses T1, PI3Kδ (Homo sapiens, UniProt O00329).
T1 construct: purchased Merck Millipore
Put plainly: In vitro kinase inhibition assay for PI3K (ADP-Glo), PI3Kδ. Format: biochemical. As to conditions: recombinant kinase, mean of two independent experiments. The protocol: Tested compounds were dissolved in 100% DMSO, and obtained solutions were serially diluted in 1× reaction buffer. The recombinant kinase solution was diluted in a reaction mixture comprising 5× reaction buffer, respective compound solution (1 mM sodium diacetate 4,5-bisphosphate phosphatidylinositol (PIP2) solution in 40 mM Tris buffer), and water. In a 96-wells plate, 5 μL of compound solutions and 15 μL of the kinase solution in the reaction mixture were added per well. To initiate the interaction of chemical compounds to be tested with the enzyme, the plate was incubated for 10 min at a suitable temperature in a plate thermostat with orbital shaking at 600 rpm. Negative control wells contained all the above reagents except tested compound and kinase, and positive control wells contained all the above reagents except tested compounds. […] Subsequently, the plate was incubated for 1 h at 25 or 30 °C (depending on the PI3K isoform tested) in a plate thermostat with orbital shaking of the plate contents at 600 rpm. The reaction conditions are combined in the table below (Table 6).
Detection of ADP formed in the enzymatic reaction was then performed using ADP-Glo Kinase Assay™ (Promega, Madison, WI, USA). To the wells of a 96-well plate, 25 μL of ADP-Glo Reagent™ was added, and the plate was incubated for 40 min at 25 °C in a plate thermostat with orbital shaking at 600 rpm. Then 50 μL of Kinase Detection Reagent were added to each well, and the plate was incubated for 40 min at 25 °C in a plate thermostat with orbital shaking at 600 rpm. Once the incubation was complete, the luminescence intensity was measured using a Victor Light luminometer (Perkin Elmer, Inc., Waltham, MA, USA). IC50 values were determined based on luminescence intensity measured in wells containing tested compounds at different concentrations in relation to control wells. […] Each compound was tested at least in quadruplicates (4 wells) on two 96-well plates utilizing at least 4 wells for each control.
(In general: ADP-Glo turns the ADP formed in a reaction into a luminescent signal.)

In assay [2] the target is T2, PI3Kα (Homo sapiens, UniProt P42336).
T2 construct: purchased Carna Biosciences
T2 sequence (P42336 whole entry): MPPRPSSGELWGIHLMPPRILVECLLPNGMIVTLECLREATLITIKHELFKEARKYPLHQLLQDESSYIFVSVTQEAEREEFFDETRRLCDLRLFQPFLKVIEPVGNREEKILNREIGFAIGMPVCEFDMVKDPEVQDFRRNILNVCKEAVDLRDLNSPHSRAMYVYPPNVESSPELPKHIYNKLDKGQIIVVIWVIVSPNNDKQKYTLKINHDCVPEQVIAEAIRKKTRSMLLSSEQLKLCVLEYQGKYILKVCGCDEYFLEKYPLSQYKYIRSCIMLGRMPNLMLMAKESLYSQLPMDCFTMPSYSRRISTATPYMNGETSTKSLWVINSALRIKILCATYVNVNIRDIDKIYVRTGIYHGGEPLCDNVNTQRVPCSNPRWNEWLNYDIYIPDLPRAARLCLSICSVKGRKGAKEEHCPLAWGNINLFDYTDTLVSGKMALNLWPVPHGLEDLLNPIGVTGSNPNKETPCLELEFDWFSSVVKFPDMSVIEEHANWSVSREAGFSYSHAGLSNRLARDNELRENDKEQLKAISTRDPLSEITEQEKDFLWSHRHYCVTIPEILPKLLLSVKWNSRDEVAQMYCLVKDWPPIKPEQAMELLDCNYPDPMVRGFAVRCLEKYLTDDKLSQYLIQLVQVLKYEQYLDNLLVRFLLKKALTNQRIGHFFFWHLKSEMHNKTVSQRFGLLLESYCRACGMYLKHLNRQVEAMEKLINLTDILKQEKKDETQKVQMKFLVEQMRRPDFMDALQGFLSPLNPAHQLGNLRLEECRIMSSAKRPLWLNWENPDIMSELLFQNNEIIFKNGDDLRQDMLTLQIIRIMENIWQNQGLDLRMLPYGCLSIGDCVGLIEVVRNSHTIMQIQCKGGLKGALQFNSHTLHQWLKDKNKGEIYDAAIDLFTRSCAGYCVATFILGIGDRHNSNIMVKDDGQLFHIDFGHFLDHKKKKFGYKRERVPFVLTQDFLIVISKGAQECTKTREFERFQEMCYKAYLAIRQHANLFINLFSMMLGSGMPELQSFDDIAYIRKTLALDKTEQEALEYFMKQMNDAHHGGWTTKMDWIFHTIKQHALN
T2 sequence (P27986 whole entry partner): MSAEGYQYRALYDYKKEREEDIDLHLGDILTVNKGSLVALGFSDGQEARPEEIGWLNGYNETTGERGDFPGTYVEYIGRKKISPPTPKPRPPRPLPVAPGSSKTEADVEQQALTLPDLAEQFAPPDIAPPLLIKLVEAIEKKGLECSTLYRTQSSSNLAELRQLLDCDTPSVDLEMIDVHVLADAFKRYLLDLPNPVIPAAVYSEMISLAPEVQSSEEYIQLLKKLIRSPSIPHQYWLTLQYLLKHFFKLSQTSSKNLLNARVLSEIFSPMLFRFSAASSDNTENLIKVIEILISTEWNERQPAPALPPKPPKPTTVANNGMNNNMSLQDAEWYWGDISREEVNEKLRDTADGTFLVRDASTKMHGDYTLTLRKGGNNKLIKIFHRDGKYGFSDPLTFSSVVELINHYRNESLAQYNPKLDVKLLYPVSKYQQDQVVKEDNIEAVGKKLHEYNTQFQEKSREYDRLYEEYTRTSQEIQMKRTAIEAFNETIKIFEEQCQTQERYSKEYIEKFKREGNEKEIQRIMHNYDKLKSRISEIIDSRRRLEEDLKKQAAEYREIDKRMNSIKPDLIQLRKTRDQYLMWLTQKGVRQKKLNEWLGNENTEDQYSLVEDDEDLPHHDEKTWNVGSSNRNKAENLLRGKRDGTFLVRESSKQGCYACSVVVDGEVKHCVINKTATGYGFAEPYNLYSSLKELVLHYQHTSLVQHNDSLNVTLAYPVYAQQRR
In words: In vitro kinase inhibition assay for PI3K (ADP-Glo), PI3Kα. The format is biochemical. As to conditions: for IC50: recombinant kinase, ADP-Glo, mean of two independent experiments; for Fold Selectivity α/δ: ratio of IC50 PI3Kα to IC50 PI3Kδ. The protocol:
Tested compounds were dissolved in 100% DMSO, and obtained solutions were serially diluted in 1× reaction buffer. The recombinant kinase solution was diluted in a reaction mixture comprising 5× reaction buffer, respective compound solution (1 mM sodium diacetate 4,5-bisphosphate phosphatidylinositol (PIP2) solution in 40 mM Tris buffer), and water. In a 96-wells plate, 5 μL of compound solutions and 15 μL of the kinase solution in the reaction mixture were added per well. To initiate the interaction of chemical compounds to be tested with the enzyme, the plate was incubated for 10 min at a suitable temperature in a plate thermostat with orbital shaking at 600 rpm. Negative control wells contained all the above reagents except tested compound and kinase, and positive control wells contained all the above reagents except tested compounds. The enzymatic reaction was initiated by adding 5 μL of 150 μM ATP solution. Subsequently, the plate was incubated for 1 h at 25 or 30 °C (depending on the PI3K isoform tested) in a plate thermostat with orbital shaking of the plate contents at 600 rpm. The reaction conditions are combined in the table below (Table 6).
Detection of ADP formed in the enzymatic reaction was then performed using ADP-Glo Kinase Assay™ (Promega, Madison, WI, USA). To the wells of a 96-well plate, 25 μL of ADP-Glo Reagent™ was added, and the plate was incubated for 40 min at 25 °C in a plate thermostat with orbital shaking at 600 rpm. Then 50 μL of Kinase Detection Reagent were added to each well, and the plate was incubated for 40 min at 25 °C in a plate thermostat with orbital shaking at 600 rpm. Once the incubation was complete, the luminescence intensity was measured using a Victor Light luminometer (Perkin Elmer, Inc., Waltham, MA, USA). IC50 values were determined based on luminescence intensity measured in wells containing tested compounds at different concentrations in relation to control wells. These values were calculated with Graph Pad 5.03 software by fitting the curve using non-linear regression. Each compound was tested at least in quadruplicates (4 wells) on two 96-well plates utilizing at least 4 wells for each control. Averaged results of inhibition activity respective to specific isoforms of PI3K kinases for tested compounds are presented as IC50 values in Table 1, Table 2, Table 3 and Table 4.

The values below come from publication PMC9412374, “Design, Synthesis, and Development of pyrazolo[1,5-a]pyrimidine Derivatives as a Novel Series of Selective PI3Kδ Inhibitors: Part I—Indole Derivatives” (Pharmaceuticals, 2022).

“And” between values parts separate entries of the source, which are not always exact repeats. Equal values may be shown once. Read-outs that look alike come from different tables or passages of the source.

For orientation: IC50 means the concentration at which inhibition is half-maximal.

T1 sequence (P27986 whole entry): as the sequence (P27986 whole entry partner) above
T1 sequence (O00329 whole entry): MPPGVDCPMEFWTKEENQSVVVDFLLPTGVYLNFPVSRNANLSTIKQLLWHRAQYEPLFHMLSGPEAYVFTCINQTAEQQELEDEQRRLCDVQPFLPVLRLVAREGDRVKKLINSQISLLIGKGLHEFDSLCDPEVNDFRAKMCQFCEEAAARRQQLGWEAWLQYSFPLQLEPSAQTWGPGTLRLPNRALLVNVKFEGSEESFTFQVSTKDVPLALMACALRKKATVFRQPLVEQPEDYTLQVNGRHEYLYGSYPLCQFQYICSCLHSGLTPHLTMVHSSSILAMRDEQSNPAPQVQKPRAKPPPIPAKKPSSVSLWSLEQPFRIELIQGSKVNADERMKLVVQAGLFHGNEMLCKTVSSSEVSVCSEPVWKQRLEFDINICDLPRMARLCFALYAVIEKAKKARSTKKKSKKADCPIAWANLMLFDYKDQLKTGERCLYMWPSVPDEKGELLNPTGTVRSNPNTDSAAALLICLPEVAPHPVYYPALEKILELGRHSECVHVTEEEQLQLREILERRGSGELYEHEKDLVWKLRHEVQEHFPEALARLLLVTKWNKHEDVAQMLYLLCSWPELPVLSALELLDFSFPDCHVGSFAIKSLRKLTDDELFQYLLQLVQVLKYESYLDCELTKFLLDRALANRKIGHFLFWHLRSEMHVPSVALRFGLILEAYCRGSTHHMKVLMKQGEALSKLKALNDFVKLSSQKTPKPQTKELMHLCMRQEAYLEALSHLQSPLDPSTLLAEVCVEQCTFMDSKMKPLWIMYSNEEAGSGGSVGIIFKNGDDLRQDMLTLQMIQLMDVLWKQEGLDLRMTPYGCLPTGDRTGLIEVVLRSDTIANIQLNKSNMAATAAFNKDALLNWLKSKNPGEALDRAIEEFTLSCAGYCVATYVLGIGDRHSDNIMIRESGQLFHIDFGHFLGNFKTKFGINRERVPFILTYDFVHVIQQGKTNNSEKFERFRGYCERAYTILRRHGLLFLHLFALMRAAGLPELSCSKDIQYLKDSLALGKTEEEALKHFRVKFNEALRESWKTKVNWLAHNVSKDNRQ

With `c1cc(-c2cc(N3CCOCC3)n3nc(CN4CCN(C5CCCC5)CC4)cc3n2)c2cc[nH]c2c1` [Compound 40, 2-((4-cyclopentylpiperazin-1-yl)methyl)-5-(1H-indol-4-yl)-7-(morpholin-4-yl)pyrazolo[1,5-a]pyrimidine], the IC50 was determined as 0.042 µM in assay [1] (read-out: IC50 PI3K δ) and 13.8 µM in assay [2] (IC50 PI3K α). In assay [2], the “Fold Selectivity α/δ” value is recorded as 329.

As to `O[C@@H]1CCN(Cc2cc3nc(-c4cccc5[nH]ccc45)cc(N4CCOCC4)n3n2)C1` [Compound 25], the IC50 in assay [1] (read-out: IC50 PI3K δ) turned out to be 1.99 µM.

Turning to `Cc1cc(Nc2cc(N3CCOCC3)n3nc(C)cc3n2)[nH]n1` [Compound 9, 3-methyl-N-[2-methyl-7-(morpholin-4-yl)pyrazolo[1,5-a]pyrimidin-5-yl]-1H-pyrazol-5-amine], the IC50 in assay [1] (read-out: IC50 PI3Kδ) was 43.6 µM; in assay [2] (IC50 PI3Kα), over 60 µM. The “Fold Selectivity α/δ” value in assay [2] is given as over 1.4.

As to `COc1ccc(N2CCN(Cc3cc4nc(-c5cccc6[nH]ccc56)cc(N5CCOCC5)n4n3)CC2)cc1` [Compound 32, 5-(1H-indol-4-yl)-2-((4-(4-methoxyphenyl)piperazin-1-yl)-methyl)-7-(morpholin-4-yl)pyrazolo[1,5-a]pyrimidine], the IC50 in assay [1] (read-out: IC50 PI3K δ) stood at 0.177 µM; in assay [2] (IC50 PI3K α) it was 8.79 µM. Besides, the “Fold Selectivity α/δ” value in assay [2] is 50.

`CN1CCN(C2CCN(Cc3cc4nc(-c5cccc6[nH]ccc56)cc(N5CCOCC5)n4n3)CC2)CC1` [Compound 29, 5-(1H-indol-4-yl)-2-((4-(4-methylpiperazin-1-yl)piperidin-1-yl)methyl)-7-(morpholin-4-yl)pyrazolo[1,5-a]pyrimidine]: the IC50 in assay [1] (read-out: IC50 PI3K δ) came to 0.052 µM; in assay [2] (IC50 PI3K α), 15.6 µM. Further, the “Fold Selectivity α/δ” value in assay [2] was 301.

With `c1cc(-c2cc(N3CCOCC3)n3nc(CN4CC5CC4CN5C4COC4)cc3n2)c2cc[nH]c2c1` [Compound 43, 5-(1H-indol-4-yl)-2-(((1S, 4S)-2-(oxetan-3-yl)-2,5-diaza-bicyclo [2.2.1]hept-2-yl)methyl)-7-(morpholin-4-yl)pyrazolo[1,5-a]pyrimidine], the IC50 in assay [1] (read-out: IC50 PI3K δ) is 0.071 µM; in assay [2] (IC50 PI3K α) it was 22.6 µM. Also, the “Fold Selectivity α/δ” value in assay [2] amounted to 318.

Consider `c1cc(-c2cc(N3CCOCC3)n3nc(CN4CCOCC4)cc3n2)c2cc[nH]c2c1` [Compound 28, 5-(1H-indol-4-yl)-7-(morpholin-4-yl)-2-((morpholin-4-yl)methyl)pyrazolo[1,5-a]pyrimidine], for which the IC50 in assay [1] (read-out: IC50 PI3K δ) was 1.07 µM.

Consider `CCc1nc2ccccc2n1-c1cc(N2CCOCC2)n2nc(C)cc2n1` [Compound 6, 2-methyl-5-(2-ethylbenzimidazol-1-yl)-7-(morpholin-4-yl)pyrazolo[1,5-a]pyrimidine], for which the IC50 in assay [1] (read-out: IC50 PI3Kδ) is 2.3 µM; in assay [2] (IC50 PI3Kα), 25.9 µM. For the same compound, in assay [2], the “Fold Selectivity α/δ” value is 11.

Consider `Cc1cc2nc(-c3cccc4[nH]ncc34)cc(N3CCOCC3)n2n1` [Compound 12, 2-methyl-7-(morpholin-4-yl)-5-(1H-indazole-4-yl)pyrazolo[1,5-a]pyrimidine], for which the 50% inhibitory concentration (IC50) in assay [1] (read-out: IC50 PI3Kδ) came out at 3.85 µM; in assay [2] (IC50 PI3Kα), 4.81 µM. Besides, in assay [2], the “Fold Selectivity α/δ” value came out at 1.2.

On to `CN1CCN(Cc2cc3nc(-c4cccc5[nH]ccc45)cc(N4CCOCC4)n3n2)CC1` [Compound 33, 5-(1H-indol-4-yl)-2-((4-methyl-piperazin-1-yl)methyl)-7-(morpholin-4-yl)pyrazolo[1,5-a]pyrimidine], for which the IC50 in assay [1] (read-out: IC50 PI3K δ) is 0.193 µM; in assay [2] (IC50 PI3K α), 42.4 µM. Moreover, the “Fold Selectivity α/δ” value in assay [2] worked out at 220.

For `Cc1cc2nc(-c3ccc(N)nc3)cc(N3CCOCC3)n2n1` [Compound 11, 2-methyl-7-(morpholin-4-yl)-5-(2-aminopyridin-5-yl)pyrazolo[1,5-a]pyrimidine], the IC50 came out at 6.86 µM in assay [1] (read-out: IC50 PI3Kδ) and 4.64 µM in assay [2] (IC50 PI3Kα). Further, the “Fold Selectivity α/δ” value in assay [2] is listed as 0.7.

Consider `COC(=O)C1CCN(Cc2cc3nc(-c4cccc5[nH]ccc45)cc(N4CCOCC4)n3n2)CC1` [Compound 35, Methyl 1-((5-(1H-indol-4-yl)-7-(morpholin-4-yl)pyrazolo[1,5-a]pyrimidin-2-yl)methyl)piperidin-4-carboxylate], for which the figures for the IC50 in assay [1] (read-out: IC50 PI3K δ) and in assay [2] (IC50 PI3K α) were 0.138 µM and 8.46 µM, respectively. In addition, the “Fold Selectivity α/δ” value in assay [2] turned out to be 61.

Regarding `c1cc(-c2cc(N3CCOCC3)n3nc(CN4CCN(C5COC5)CC4)cc3n2)c2cc[nH]c2c1` [Compound 42], the IC50 in assay [1] (read-out: IC50 PI3K δ) amounted to 0.056 µM; in assay [2] (IC50 PI3K α), 18.7 µM. Besides, the “Fold Selectivity α/δ” value in assay [2] is given as 334.

`O=S1(=O)CCN(Cc2cc3nc(-c4cccc5[nH]ccc45)cc(N4CCOCC4)n3n2)CC1` [Compound 27, 2-((1,1-dioxothiomorpholin-1-yl)-methyl)-5-(1H-indol-4-yl)-7-(morpholin-4-yl)pyrazolo[1,5-a]pyrimidine]: the figures for the IC50 in assay [1] (read-out: IC50 PI3K δ) and in assay [2] (IC50 PI3K α) were 0.266 µM and 8.65 µM, respectively. Besides, the “Fold Selectivity α/δ” value in assay [2] was determined as 33.

`CS(=O)(=O)N1CCN(Cc2cc3nc(-c4cccc5[nH]ccc45)cc(N4CCOCC4)n3n2)CC1` [Compound 23, 5-(1H-indol-4-yl)-2-((4-(methyl-sulphonyl)piperazin-1-yl)methyl)-7-(morpholin-4-yl)pyrazolo[1,5-a]pyrimidine]: the IC50 in assay [1] (read-out: IC50 PI3K δ) is 0.402 µM; in assay [1] (read-out: IC50 PI3Kδ), 0.4 µM; in assay [2] (IC50 PI3K α), 2.35 µM; in assay [2] (IC50 PI3Kα), 2.35 µM. The “Fold Selectivity α/δ” value in assay [2] is recorded as 5.8.

Turning to `Cc1cc2nc(-n3c(C(F)F)nc4ccccc43)cc(N3CCOCC3)n2n1` [Compound 7, 2-methyl-5-(2-difluoromethylbenzimidazol-1-yl)-7-(morpholin-4-yl)pyrazolo[1,5-a]pyrimidine], the IC50 is 0.47 µM and 0.475 µM in assay [1] (read-out: IC50 PI3Kδ); 1.06 µM in assay [2] (IC50 PI3Kα). In addition, the “Fold Selectivity α/δ” value in assay [2] amounted to 2.2.

Consider `Cc1cc2nc(-c3cn[nH]c3)cc(N3CCOCC3)n2n1` [Compound 10, 2-methyl-7-(morpholin-4-yl)-5-(1H-pyrazol-4-yl)pyrazolo[1,5-a]pyrimidine], for which the figures for the IC50 in assay [1] (read-out: IC50 PI3Kδ) and in assay [2] (IC50 PI3Kα) were 12.7 µM and 36.2 µM, respectively. Also, in assay [2], the “Fold Selectivity α/δ” value is 2.9.

In the case of `Cc1cc2nc(-n3c(C)nc4ccccc43)cc(N3CCOCC3)n2n1` [Compound 5, 2-methyl-5-(2-methylbenzimidazol-1-yl)-7-(morpholin-4-yl)pyrazolo[1,5-a]pyrimidine], the results for the IC50 in assay [1] (read-out: IC50 PI3Kδ) and in assay [2] (IC50 PI3Kα) were 3.56 µM and 35.1 µM, respectively. The “Fold Selectivity α/δ” value in assay [2] stood at 9.9.

With `Cc1cc2nc(-c3cccc4[nH]ccc34)cc(N3CCOCC3)n2n1` [Compound 13, 2-methyl-7-(morpholin-4-yl)-5-(1H-indole-4-yl)pyrazolo[1,5-a]pyrimidine], the values for the half-maximal inhibitory concentration (IC50) in assay [1] (read-out: IC50 PI3Kδ) and in assay [2] (IC50 PI3Kα) were 0.772 µM and 23.5 µM, respectively. For the same compound, the “Fold Selectivity α/δ” value in assay [2] came to 30.

Turning to `O=C(Nc1ccccc1)NC1CCN(Cc2cc3nc(-c4cccc5[nH]ccc45)cc(N4CCOCC4)n3n2)CC1` [Compound 31, 1-phenyl-3-(1-((5-(1H-indol-4-yl)-7-(morpholin-4-yl)pyrazolo[1,5-a]pyrimidin-2-yl)methyl)piperidin-4-yl)urea], in assay [1] (read-out: IC50 PI3K δ), the IC50 was determined as 0.559 µM.

For `O[C@H]1CCN(Cc2cc3nc(-c4cccc5[nH]ccc45)cc(N4CCOCC4)n3n2)C1` [Compound 26], the half-inhibitory concentration (IC50) in assay [1] (read-out: IC50 PI3K δ) was 2.21 µM.
